# In patent US9062074B2, “(9E)-15-(2-pyrrolidin-1-yl-ethoxy)-7,12,25-trioxa-19,21,24-triaza-tetracyclo[18.3.1.1(2.5).1(14,18)]hexacosa-1(24),2,4,9,14,16,18(26),20,22-nonaene citrate salt” (CTI BioPharma Corp., priority 2009, dated 2015):
# Like-named read-outs stand apart in the source and are kept apart here.
# Experiments:
# Format in all cases: physicochemical
# [1] = Thermogravimetric Analysis (TGA)
# Protocol: Thermogravimetric Analysis (TGA) data were collected on a Mettler TGA/SDTA 851e equipped with a 34 position autosampler. The instrument was temperature calibrated using certified indium. Typically 5-30 mg of each sample was loaded onto a pre-weighed aluminium crucible and was heated at 10° C.min^−1 from ambient temperature to 350° C. A nitrogen purge at 50 ml.min^−1 was maintained over the sample. The instrument control and data analysis software was STARe v9.10.
# [2] = Solubility assessment (solvent added in 10 volume aliquots); settings: organic solvent or mixture, thermodynamic from solid, read-out: Solubility assessment observation
# Protocol: For each solvent investigated, approximately 8 mg of compound 1 was weighed into an 8 ml screw top glass vial. The solvent was added in 10 volume aliquots and the mixture sonicated and warmed (with a hot-air gun) to encourage dissolution. If dissolution was not achieved after the addition of 100 volumes of solvent, a further 100 volumes was added.
# [3] = Differential Scanning Calorimetry (DSC); settings: from DSC endotherm shape and TGA weight loss
# Protocol: Differential Scanning Calorimetry (DSC) data were collected on a Mettler DSC 823e equipped with a 34 position auto-sampler. The instrument was calibrated for energy and temperature using certified indium. Typically 0.5-3 mg of each sample, in a pin-holed aluminium pan, was heated at 10° C.min^−1 from 25° C. to 350° C. A nitrogen purge at 50 ml.min^−1 was maintained over the sample. The instrument control and data analysis software was STARe v9.10.
# [4] = Phase stability by XRPD after storage at 40° C. and 75% relative humidity for one week; settings: solid form by low resolution XRPD after one week
# Protocol: Condition 2 (Low Resolution)
# X-Ray Powder Diffraction patterns were also collected on a Bruker D8 diffractometer using Cu K[…] radiation (40 kV, 40 mA), θ-2θ goniometer, and divergence of V4 and receiving slits, a Ge monochromator and a Lynxeye detector. The instrument is performance checked using a certified Corundum standard (NIST 1976). The software used for data collection was Diffrac Plus XRD Commander v2.5.0 and the data were analysed and presented using Diffrac Plus EVA v 11.0.0.2 or v 13.0.0.2. Samples were run under ambient conditions as flat plate specimens using powder as received. Approximately 15 mg of the sample was gently packed into a cavity cut into polished, zerobackground (510) silicon wafer. The sample was rotated in its own plane during analysis. The details of the data collection are:
# The samples which had been prepared for the collection of low resolution XRPD traces were placed in a chamber maintained at 40° C. and 75% relative humidity. After one week the samples were reanalysed by low resolution XRPD (Condition 2), to check for phase changes. It can be seen that no phase change has occurred, and that citrate salts of the invention are stable for at least one week under these conditions.
smiles,measurement,setting,value
C1=C2COC/C=C/COCc3cc(ccc3OCCN3CCCC3)Nc3nccc(n3)C(=C1)O2 [Batch 4],Thermogravimetric Analysis weight change,[1]; 160 to 250° C.,−20% w/w 160 to 250 °C
same,Thermogravimetric Analysis weight change,[1]; ambient to 160° C.,−0.4% w/w ambient to
same,weight loss in TGA corresponding to DSC thermal event,[1]; at thermal event at 176° C.,~20%
same,solubility,"[2]; TBME, TBME, 10 vols",< 100 mg/mL
same,solubility,"[2]; TBME, TBME, 20 vols",< 50 mg/mL
same,solubility,"[2]; TBME, TBME, 30 vols",< 33.3 mg/mL
same,solubility,"[2]; TBME, TBME, 40 vols",< 25 mg/mL
same,solubility,"[2]; TBME, TBME, 50 vols",< 20 mg/mL
same,solubility,"[2]; TBME, TBME, 60 vols",< 16.7 mg/mL
same,solubility,"[2]; TBME, TBME, 70 vols",< 14.3 mg/mL
same,solubility,"[2]; TBME, TBME, 80 vols",< 12.5 mg/mL
same,solubility,"[2]; TBME, TBME, 90 vols",< 11.1 mg/mL
same,solubility,"[2]; TBME, TBME, 100 vols",< 10 mg/mL
same,solubility,"[2]; TBME, TBME, 200 vols",< 5 mg/mL
same,solubility,"[2]; ethyl acetate, Ethyl acetate, 10 vols",< 100 mg/mL
same,solubility,"[2]; ethyl acetate, Ethyl acetate, 20 vols",< 50 mg/mL
same,solubility,"[2]; ethyl acetate, Ethyl acetate, 30 vols",< 33.3 mg/mL
same,solubility,"[2]; ethyl acetate, Ethyl acetate, 40 vols",< 25 mg/mL
same,solubility,"[2]; ethyl acetate, Ethyl acetate, 50 vols",< 20 mg/mL
same,solubility,"[2]; ethyl acetate, Ethyl acetate, 60 vols",< 16.7 mg/mL
same,solubility,"[2]; ethyl acetate, Ethyl acetate, 70 vols",< 14.3 mg/mL
same,solubility,"[2]; ethyl acetate, Ethyl acetate, 80 vols",< 12.5 mg/mL
same,solubility,"[2]; ethyl acetate, Ethyl acetate, 90 vols",< 11.1 mg/mL
same,solubility,"[2]; ethyl acetate, Ethyl acetate, 100 vols",< 10 mg/mL
same,solubility,"[2]; ethyl acetate, Ethyl acetate, 200 vols",< 5 mg/mL
same,solubility,"[2]; i-propyl acetate, i-propyl acetate, 10 vols",< 100 mg/mL
same,solubility,"[2]; i-propyl acetate, i-propyl acetate, 20 vols",< 50 mg/mL
same,solubility,"[2]; i-propyl acetate, i-propyl acetate, 40 vols",< 25 mg/mL
same,solubility,"[2]; i-propyl acetate, i-propyl acetate, 60 vols",< 16.7 mg/mL
same,solubility,"[2]; i-propyl acetate, i-propyl acetate, 80 vols",< 12.5 mg/mL
same,solubility,"[2]; i-propyl acetate, i-propyl acetate, 100 vols",< 10 mg/mL
same,solubility,"[2]; i-propyl acetate, i-propyl acetate, 200 vols",< 5 mg/mL
same,solubility,"[2]; toluene, Toluene, 10 vols",< 100 mg/mL
same,solubility,"[2]; toluene, Toluene, 20 vols",< 50 mg/mL
same,solubility,"[2]; toluene, Toluene, 30 vols",< 33.3 mg/mL
same,solubility,"[2]; toluene, Toluene, 40 vols",< 25 mg/mL
same,solubility,"[2]; toluene, Toluene, 50 vols",< 20 mg/mL
same,solubility,"[2]; toluene, Toluene, 60 vols",< 16.7 mg/mL
same,solubility,"[2]; toluene, Toluene, 70 vols",< 14.3 mg/mL
same,solubility,"[2]; toluene, Toluene, 80 vols",< 12.5 mg/mL
same,solubility,"[2]; toluene, Toluene, 90 vols",< 11.1 mg/mL
same,solubility,"[2]; toluene, Toluene, 100 vols",< 10 mg/mL
same,solubility,"[2]; toluene, Toluene, 200 vols",< 5 mg/mL
same,temperature above which gross degradation is occurring,[3],> 176 °C
same,Phase Stability 1 wk @ 40° C./75% RH,[4],Crystalline Form 1
